{"source": "paper PMC8829777", "about": "(Molecular Therapy. Methods & Clinical Development, 2022)", "system": "PBMCs", "assay": "IL-2 ELISpot of in vitro expanded PBMCs", "type": "cell-based, human", "conditions": "peptides from other AAV serotypes; PBMCs from four healthy individuals; Figure S11"}
{"sequence": "FTVDNNGLY [AAV1 (6)_713-721 N718]", "values": [{"measurement": "IL-2 response / secretion", "value": "decreased IL-2 response"}]}
